Where two headings read alike, the source gives them in different places. Some results are limits rather than exact numbers.

Assay type in all cases: biochemical
The target of experiment [1] is CDK4/CCND3 (Homo sapiens, UniProt P11802). As to the kind of experiment: CDK4 homogeneous time-resolved fluorescence (HTRF) kinase assay. The note with it: CDK4/CCND; x = IC50 >250 nM; read-out: CDK4/CCND IC50 (>250 nM column). Summed up: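 IC50s derive from Lance 665 nm or 665/615 nm signals in 11-point, half-log dose series (top 10 μM, 1% DMSO). The enzyme, 1.5 nM CDK4/CCND3, phosphorylates 50 nM ULight-4E-BP1 peptide with 1 mM ATP over 60 min at 23 °C.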

Experiment [2] deals with CDK2/CCNE1 (Homo sapiens, UniProt P24941). Description: CDK2 homogeneous time-resolved fluorescence (HTRF) kinase assay. Conditions: CDK2/CCNE. Summed up:
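An HTRF format measures CDK2/CCNE1 (3 nM) phosphorylating a 4E-BP1 Thr37/46 peptide at high (1 mM) ATP. Reactions run one hour at 23 °C, then EDTA-quenched and probed with Eu-labelled phospho-specific antibody.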

Experiment [3] deals with CDK6/CCND1 (Homo sapiens, UniProt Q00534). As to the kind of experiment: CDK6 homogeneous time-resolved fluorescence (HTRF) kinase assay. The note with it: CDK6/CCND. Summed up:
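Assay conditions: HEPES buffer containing 10 mM MgCl2, 1 mM EGTA, 2 mM DTT, 0.01% Tween 20; 1 nM CDK6/CCND1, 50 nM peptide substrate, 1 mM ATP. Detection after 60 min reaction used 2 nM europium antibody with 340 nm excitation. Potency fitted from half-log series, 11 points.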

Experiment [4] has as its target CDK1/CCNB1 (Homo sapiens, UniProt P06493). As to the kind of experiment: CDK1 homogeneous time-resolved fluorescence (HTRF) kinase assay. Conditions: CDK1/CCNB; x = IC50 >250 nM; read-out: CDK1/CCNB IC50 (>250 nM column). Summed up:
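0.5 nM CDK1/CCNB1 was preincubated 20 min at 23 °C with compound in HEPES pH-unspecified buffer (MgCl2, EGTA, DTT, Tween 20), then reacted 60 min with 1 mM ATP and 50 nM ULight-4E-BP1 (Thr37/46) peptide. EDTA-stopped reactions were detected with 2 nM Eu-anti-phospho antibody; IC50 from 11-point half-log titrations.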

[5] abbreviates: x = IC50 25-250 nM, read-out: CDK2/CCNE IC50 (25-250 nM).
[6] abbreviates: x = IC50 >250 nM, read-out: CDK6/CCND IC50 (>250 nM column).
The mark [7] stands for this setting: x = IC50 <25 nM, read-out: CDK6/CCND IC50 (<25 nM).

Sequence of CDK4/CCND3 (P11802 whole entry): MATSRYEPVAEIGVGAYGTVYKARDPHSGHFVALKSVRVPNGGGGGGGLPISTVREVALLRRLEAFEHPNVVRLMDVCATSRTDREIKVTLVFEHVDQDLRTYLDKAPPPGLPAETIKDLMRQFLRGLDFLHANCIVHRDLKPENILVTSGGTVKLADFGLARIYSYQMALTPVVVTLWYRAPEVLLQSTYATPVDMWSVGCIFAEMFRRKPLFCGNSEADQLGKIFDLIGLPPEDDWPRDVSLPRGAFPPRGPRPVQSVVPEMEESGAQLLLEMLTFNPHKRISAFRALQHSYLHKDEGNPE
Sequence of CDK4/CCND3 (P30281 whole entry partner): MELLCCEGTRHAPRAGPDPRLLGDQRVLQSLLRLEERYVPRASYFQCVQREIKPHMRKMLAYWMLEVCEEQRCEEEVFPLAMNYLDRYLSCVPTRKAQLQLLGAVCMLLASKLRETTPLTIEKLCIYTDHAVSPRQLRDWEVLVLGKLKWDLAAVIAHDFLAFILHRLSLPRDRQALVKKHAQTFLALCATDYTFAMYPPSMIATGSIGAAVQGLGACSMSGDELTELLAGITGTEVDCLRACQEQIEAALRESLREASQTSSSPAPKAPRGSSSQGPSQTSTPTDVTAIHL
Sequence of CDK1/CCNB1 (P06493 whole entry): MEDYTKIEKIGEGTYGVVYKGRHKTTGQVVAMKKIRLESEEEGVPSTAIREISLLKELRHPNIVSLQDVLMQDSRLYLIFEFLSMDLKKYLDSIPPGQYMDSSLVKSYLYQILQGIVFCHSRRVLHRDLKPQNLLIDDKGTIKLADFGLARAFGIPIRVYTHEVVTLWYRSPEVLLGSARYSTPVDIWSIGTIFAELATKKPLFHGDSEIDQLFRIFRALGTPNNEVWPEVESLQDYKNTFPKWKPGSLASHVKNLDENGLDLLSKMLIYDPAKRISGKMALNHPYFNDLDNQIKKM
Sequence of CDK1/CCNB1 (P14635 whole entry partner): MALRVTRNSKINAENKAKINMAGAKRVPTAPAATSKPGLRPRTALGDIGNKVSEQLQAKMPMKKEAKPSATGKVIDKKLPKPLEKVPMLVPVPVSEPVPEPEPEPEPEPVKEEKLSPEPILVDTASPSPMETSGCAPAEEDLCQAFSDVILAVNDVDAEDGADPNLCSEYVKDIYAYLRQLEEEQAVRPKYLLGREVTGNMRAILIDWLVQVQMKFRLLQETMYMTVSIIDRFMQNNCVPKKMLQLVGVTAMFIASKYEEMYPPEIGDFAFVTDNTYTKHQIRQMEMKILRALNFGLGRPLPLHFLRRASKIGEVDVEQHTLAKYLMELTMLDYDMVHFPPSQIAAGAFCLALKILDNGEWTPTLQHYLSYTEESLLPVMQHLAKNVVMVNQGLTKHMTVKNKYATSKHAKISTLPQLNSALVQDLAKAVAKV
Sequence of CDK6/CCND1 (Q00534 whole entry): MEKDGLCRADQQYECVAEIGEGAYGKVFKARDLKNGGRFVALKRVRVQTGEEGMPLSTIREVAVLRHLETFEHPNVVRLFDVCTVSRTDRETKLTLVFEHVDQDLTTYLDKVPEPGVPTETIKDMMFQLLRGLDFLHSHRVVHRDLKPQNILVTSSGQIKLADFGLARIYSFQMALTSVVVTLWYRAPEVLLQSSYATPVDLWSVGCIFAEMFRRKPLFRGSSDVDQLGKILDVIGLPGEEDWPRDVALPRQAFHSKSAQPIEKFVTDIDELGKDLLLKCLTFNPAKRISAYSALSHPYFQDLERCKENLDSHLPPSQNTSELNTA
Sequence of CDK6/CCND1 (P24385 whole entry partner): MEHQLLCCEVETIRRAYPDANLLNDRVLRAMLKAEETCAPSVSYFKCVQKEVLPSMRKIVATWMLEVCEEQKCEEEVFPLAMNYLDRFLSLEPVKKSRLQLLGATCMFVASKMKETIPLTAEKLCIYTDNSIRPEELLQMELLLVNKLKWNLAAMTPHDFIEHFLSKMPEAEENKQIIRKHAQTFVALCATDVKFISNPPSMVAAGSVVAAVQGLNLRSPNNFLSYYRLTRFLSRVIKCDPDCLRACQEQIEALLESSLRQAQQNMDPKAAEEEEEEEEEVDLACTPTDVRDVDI

For the compound `CS(=O)(=O)c1ccc(Nc2cc3c(C#Cc4cc(F)c(N)c(F)c4)nccc3cn2)cc1` [Ex 549, 5-((4-amino-3,5-difluorophenyl)ethynyl)-N-(4-(methylsulfonyl)phenyl)-2,6-naphthyridin-3-amine], the IC50 in experiment [1] was more than 250 nM; in experiment [2] (setting [5]) it was 25 to 250 nM; in experiment [3] (setting [6]) it was more than 250 nM; in experiment [4] it was more than 250 nM.

As for `CS(=O)(=O)c1ccc(Nc2cc3c(C#Cc4cnn(CC(F)(F)F)c4)nccc3cn2)cc1` [Ex 550, N-(4-(methylsulfonyl)phenyl)-5-((1-(2,2,2-trifluoroethyl)-1H-pyrazol-4-yl)ethynyl)-2,6-naphthyridin-3-amine], the IC50 in experiment [1] was more than 250 nM; in experiment [2] (setting [5]), 25 to 250 nM; in experiment [3] (setting [6]), more than 250 nM; in experiment [4], more than 250 nM.

Regarding `CS(=O)(=O)c1ccc(Nc2cc3c(C#Cc4n[nH]c5cccc(F)c45)nccc3cn2)cc1` [Ex 551, 5-((4-fluoro-1H-indazol-3-yl)ethynyl)-N-(4-(methylsulfonyl)phenyl)-2,6-naphthyridin-3-amine], the IC50 in experiment [1] was more than 250 nM; in experiment [2] (setting [5]), 25 to 250 nM; in experiment [3] (setting [7]), less than 25 nM; in experiment [4], more than 250 nM.

As for `CS(=O)(=O)c1ccc(Nc2cc3c(C#Cc4ncc(N)nc4Cl)nccc3cn2)cc1` [Ex 552, 5-((5-amino-3-chloropyrazin-2-yl)ethynyl)-N-(4-(methylsulfonyl)phenyl)-2,6-naphthyridin-3-amine], the IC50 was more than 250 nM in experiment [1], 25 to 250 nM in experiment [2] (setting [5]), less than 25 nM in experiment [3] (setting [7]) and more than 250 nM in experiment [4].

As for `Cc1ccc(C#Cc2nccc3cnc(Nc4ccc(S(C)(=O)=O)cc4)cc23)c(C#N)n1` [Ex 553, 6-methyl-3-((7-((4-(methylsulfonyl)phenyl)amino)-2,6-naphthyridin-1-yl)ethynyl)picolinonitrile], the IC50 is more than 250 nM in experiment [1], 25 to 250 nM in experiment [2] (setting [5]), less than 25 nM in experiment [3] (setting [7]) and more than 250 nM in experiment [4].

For `CS(=O)(=O)c1ccc(Nc2cc3c(C#Cc4ccc(C#N)cc4F)nccc3cn2)cc1` [Ex 554, 3-fluoro-4-((7-((4-(methylsulfonyl)phenyl)amino)-2,6-naphthyridin-1-yl)ethynyl)benzonitrile], the IC50 in experiment [1] was more than 250 nM; in experiment [2] (setting [5]) it was 25 to 250 nM; in experiment [3] (setting [6]), more than 250 nM; in experiment [4], more than 250 nM.

Regarding `Cc1cnc(C#Cc2nccc3cnc(Nc4ccc(S(C)(=O)=O)cc4)cc23)c(C)n1` [Ex 555, 5-((3,5-dimethylpyrazin-2-yl)ethynyl)-N-(4-(methylsulfonyl)phenyl)-2,6-naphthyridin-3-amine], the IC50 in experiment [1] was more than 250 nM; in experiment [2] (setting [5]) it was 25 to 250 nM; in experiment [3] (setting [6]), more than 250 nM; in experiment [4], more than 250 nM.

As for `CS(=O)(=O)c1ccc(Nc2cc3c(C#Cc4cc(F)cnc4N)nccc3cn2)cc1` [Ex 556, 5-((2-amino-5-fluoropyridin-3-yl)ethynyl)-N-(4-(methylsulfonyl)phenyl)-2,6-naphthyridin-3-amine], the IC50 is more than 250 nM in experiment [1], 25 to 250 nM in experiment [2] (setting [5]), more than 250 nM in experiment [3] (setting [6]) and more than 250 nM in experiment [4].

For the compound `CS(=O)(=O)c1ccc(Nc2cc3c(C#Cc4cc(N)ncc4F)nccc3cn2)cc1` [Ex 557, 5-((2-amino-5-fluoropyridin-4-yl)ethynyl)-N-(4-(methylsulfonyl)phenyl)-2,6-naphthyridin-3-amine], the IC50 in experiment [1] is more than 250 nM; in experiment [2] (x = IC50 <25 nM, read-out: CDK2/CCNE IC50 (<25 nM)), less than 25 nM; in experiment [3] (setting [6]), more than 250 nM; in experiment [4], more than 250 nM.

Regarding `CS(=O)(=O)c1ccc(Nc2cc3c(C#Cc4ccc(N)nc4Cl)nccc3cn2)cc1` [Ex 558, 5-((6-amino-2-chloropyridin-3-yl)ethynyl)-N-(4-(methylsulfonyl)phenyl)-2,6-naphthyridin-3-amine], the IC50 in experiment [1] was more than 250 nM; in experiment [2] (setting [5]), 25 to 250 nM; in experiment [3] (setting [6]), more than 250 nM; in experiment [4] it was more than 250 nM.

Consider `CS(=O)(=O)c1ccc(Nc2cc3c(C#Cc4cc(N)n[nH]4)nccc3cn2)cc1` [Ex 559, 5-((3-amino-1H-pyrazol-5-yl)ethynyl)-N-(4-(methylsulfonyl)phenyl)-2,6-naphthyridin-3-amine], for which the IC50 in experiment [1] was more than 250 nM; in experiment [2] (setting [5]) it was 25 to 250 nM; in experiment [3] (setting [6]), more than 250 nM; in experiment [4], more than 250 nM.

Consider `CS(=O)(=O)c1ccc(Nc2cc3c(C#Cc4ccc(F)c(O)c4)nccc3cn2)cc1` [Ex 560, 2-fluoro-5-((7-((4-(methylsulfonyl)phenyl)amino)-2,6-naphthyridin-1-yl)ethynyl)phenol], for which the IC50 is more than 250 nM in experiment [1], 25 to 250 nM in experiment [2] (setting [5]), more than 250 nM in experiment [3] (setting [6]) and more than 250 nM in experiment [4].

Consider `CS(=O)(=O)c1ccc(Nc2cc3c(C#Cc4n[nH]c5ncccc45)nccc3cn2)cc1` [Ex 561, 5-((1H-pyrazolo[3,4-b]pyridin-3-yl)ethynyl)-N-(4-(methylsulfonyl)phenyl)-2,6-naphthyridin-3-amine], for which the IC50 in experiment [1] was more than 250 nM; in experiment [2] (setting [5]) it was 25 to 250 nM; in experiment [3] (setting [6]), more than 250 nM; in experiment [4] it was more than 250 nM.

For `CC(C)(O)Cn1ncc2c(C#Cc3nccc4cnc(Nc5ccc(S(C)(=O)=O)cc5)cc34)cncc21` [Ex 562, 2-methyl-1-(4-((7-((4-(methylsulfonyl)phenyl)amino)-2,6-naphthyridin-1-yl)ethynyl)-1H-pyrazolo[3,4-c]pyridin-1-yl)propan-2-ol], the IC50 is more than 250 nM in experiment [1], 25 to 250 nM in experiment [2] (setting [5]), more than 250 nM in experiment [3] (setting [6]) and more than 250 nM in experiment [4].

Regarding `CS(=O)(=O)c1ccc(Nc2cc3c(C#Cc4ccc(C(F)(F)F)cc4N)nccc3cn2)cc1` [Ex 563, 5-((2-amino-4-(trifluoromethyl)phenyl)ethynyl)-N-(4-(methylsulfonyl)phenyl)-2,6-naphthyridin-3-amine], the IC50 is more than 250 nM in experiment [1], 25 to 250 nM in experiment [2] (setting [5]), more than 250 nM in experiment [3] (setting [6]) and more than 250 nM in experiment [4].

Consider `Cc1c(C#N)cccc1C#Cc1nccc2cnc(Nc3ccc(S(C)(=O)=O)cc3)cc12` [Ex 564, 2-methyl-3-((7-((4-(methylsulfonyl)phenyl)amino)-2,6-naphthyridin-1-yl)ethynyl)benzonitrile], for which the IC50 in experiment [1] is more than 250 nM; in experiment [2] (setting [5]), 25 to 250 nM; in experiment [3] (setting [6]), more than 250 nM; in experiment [4] it was more than 250 nM.

`Cc1ncccc1C#Cc1nccc2cnc(Nc3ccc(S(C)(=O)=O)cc3)cc12` [Ex 565, 5-((2-methylpyridin-3-yl)ethynyl)-N-(4-(methylsulfonyl)phenyl)-2,6-naphthyridin-3-amine]: the IC50 in experiment [1] is more than 250 nM; in experiment [2] (setting [5]), 25 to 250 nM; in experiment [3] (setting [6]), more than 250 nM; in experiment [4], more than 250 nM.

Take `CS(=O)(=O)c1ccc(Nc2cc3c(C#Cc4ccc(N5CCOCC5)nc4)nccc3cn2)cc1` [Ex 566, N-(4-(methylsulfonyl)phenyl)-5-((6-morpholinopyridin-3-yl)ethynyl)-2,6-naphthyridin-3-amine]: the IC50 was more than 250 nM in experiment [1], 25 to 250 nM in experiment [2] (setting [5]), more than 250 nM in experiment [3] (setting [6]) and more than 250 nM in experiment [4].

For the origin of these results see patent US20260325533A1, “CDK INHIBITOR COMPOUNDS” (ALEKSIA THERAPEUTICS, INC., priority 2023, published 2026).
